How the values were obtained:
pAKT(S473) = assay: Western blot of insulin-induced AKT phosphorylation; format: cell-based, human; conditions: programmed white adipocytes, vs basal starved state
Method: Finally, it was determined whether the programmed white adipocytes respond to insulin in a manner similar to mature primary white adipocytes. […] Insulin response was examined by assessing protein expression levels of AKT and phosphorylated AKT [pAKT(S473)] (FIG. 4D).
Western blot analysis. Western blot analysis was carried out using following antibodies: total AKT (Cell signaling #9272), phospho-Ser 473 AKT (Cell signaling #9271), Lamin A/C (Fisher/Millipore #3211).

[1] = tested on: BJ RiPS MPC derived adipocytes; assay: Glucose uptake assay ([3H]-2-deoxy-D-glucose); format: cell-based, human; conditions: 100 nM insulin 30 min; P=0.05 unprogrammed, P=0.0007 PPARG2-programmed cells
Method: Glucose uptake assay. Adipocytes were serum-starved in 0.2% BSA DMEM overnight. Then, cells were incubated in KRH buffer (121 mM NaCl, 4.9 mM KCl, 1.2 mM MgSO4, 0.33 mM CaCl2, 12 mM HEPES, pH7.4) in the absence or presence of 100 nM insulin for 30 min at 37° C., followed by washing three times in KRH buffer. Glucose uptake was measured by incubating cells with 0.5 μCi/ml 2-deoxy-D-[3H] glucose (Perkin-Elmer) for 5 min at 37° C. After cold PBS washing three times, cells were lysed with 1% Triton X-100 solution and subjected to scintillation counting. Non-specific uptake was measured in the presence of 10 μM of cytochalasin B and subtracted from total uptake.

hPSC-derived adipocytes [2] = assay: Cellular OCR and ECAR (extracellular flux analyzer); format: cell-based, human; conditions: all cell types; 5 μM antimycin A after oligomycin and CCCP
Method: To further distinguish between white and brown adipocytes at a functional level, the characterization was extended to the mitochondrial function of our cells. […] Compounds were then injected that modulate mitochondrial function sequentially and the effect on OCR and ECAR was measured after the addition of each compound. Oligomycin was first administered to determine ATP turnover and the degree of proton leak. […] After the addition of the electron transport chain decoupler carbonyl cyanide m-chlorophenylhydrazone (CCCP), the maximal respiratory capacity was measured. […] Finally, antimycin was administered to inhibit the flux of electrons through complex III and prevent oxygen consumption by the cytochrome c oxidase in the mitochondria.
Measurement of cellular OCR and ECAR. Cells were plated in gelatin-coated XF24-well cell culture microplates (Seahorse Bioscience) and differentiated into adipocytes. Cells were incubated in prewarmed unbuffered DMEM medium (DMEM containing 2 mM GlutaMax, 1 mM sodium pyruvate, 1.85 g/l NaCl, and 25 mM glucose) for 1 hour. The oxygen consumption was measured by the XF24 Extracellular Flux Analyzer (Seahorse Biosciences). […] OCR and ECAR were determined by plotting the oxygen tension and acidification of the medium in the chamber as a function of time and normalized by protein concentration (pmol/min/mg and mpH/min/mg), respectively.

hPSC-derived adipocytes [3] = assay: Lipolysis assay (glycerol release); conditions: PPARG2-programmed, differentiated ADSVCs and MPCs; ADSVCs P=0.01, MPCs P=0.002; n=3
Method: Lipolysis assay. […] The culture media was collected for glycerol measurement using the Free Glycerol reagent (Sigma #F6428). Protein concentrations used to normalize glycerol content were measured using the Bradford protein assay (BioRad). Glycerol release was expressed in μg glycerol per mg total protein or the lowest value is set to 1.

Question: For insulin: insulin (Sigma), which “pAKT(S473) after insulin” value (pAKT(S473)) is on record?
Answer: Its value is “robustly upregulated pAKT(S473)”.

Question: And the “glucose uptake after exposure to insulin” value [1]?
Answer: Its value is “significant increase in the glucose uptake”.

Question: How did the OCR after antimycin (hPSC-derived adipocytes [2]) turn out when antimycin was run?
Answer: Its OCR after antimycin is “dropped to post-oligomycin levels”.

Question: With `CC(C)NCC(O)c1ccc(O)c(O)c1` (stereo not shown) [isoproterenol] as the compound, how does the “release of glycerol after isoproterenol” value (hPSC-derived adipocytes [3]) read?
Answer: The value was “breakdown of triglycerides and release of glycerol”.

Source: patent US20150004144A1, “DIFFERENTIATION INTO BROWN ADIPOCYTES” (THE GENERAL HOSPITAL CORPORATION, priority 2011, published 2015)
